Results published in patent publication US9724341B2 (priority 2013, dated 2017).
Read-outs that look alike come from different tables or passages of the source.

Tests used:
[1] = for Nicotine Mass Loss: isothermal TGA, API powder
Protocol: A typical calorimetric scan of nicotine m-salicylate powder is illustrated in FIG. 2. […] Thermogravimetric analysis on the powder was run in both scanning and isothermal modes. […] Isothermal data were also obtained on the API powder (˜10 mg per run) at 40° C., 50° C., and 60° C. for periods of at least 3 days.

[2] = sensitive LC method for phenol
[3] = Protocol: Solubility limit tests were performed on nicotine m-salicylate in a number of relevant solvents. […] The approximate saturation limits are in units of mg nicotine equivalent per mL of solvent. […] However, the analytical methods developed for detecting impurities related to the m-salicylate use 236 nm as the detection wavelength. Methanol has high absorbance in this range and can therefore interfere with the analytes of interest. Acetonitrile, on the other hand, has low background absorbance in this wavelength range and is therefore ideal for use.
Remark: listed apart in the source
[4] = for time coated film relatively stable (not more than 20% nicotine loss): 40 μg/foil; for time coated film stable (nicotine): 170 μg/foil
Protocol: Loss of nicotine and m-salicylic acid due to volatility and hygroscopic effects: Nicotine salts can suffer volatility issues and can also be quite hygroscopic. For instance, nicotine sulfate absorbs water so readily that it is shipped in aqueous solution. Hygroscopic effects on nicotine m-salicylate were evaluated for 2 doses at two conditions, 22° C./44% RH (ambient condition) and 40° C./75% RH. According to the Antoine equation for water, 40° C./75% RH translates to supersaturated humidity at 22° C. Each coated EMD array was placed flat on a Petri dish (without a cover) which was then stored at either 22° C./44% RH or 40° C./75% RH. At each time point, at least 4 random individual foils were removed from the array and each foil was extracted with 1.5 ml of 50/50 ACN/water for coated dose determination.

[5] = remark: listed apart in the source
Protocol: The innate volatility of free base nicotine can be greatly altered once bound to a counterion acid. The stability of nicotine in the resulting salt form can vary widely, ultimately impacting its desirability for commercial consideration. Certain packaging configurations can mitigate nicotine loss. […] Decreasing the equilibrium vapor pressure point is believed to minimize the total nicotine loss. For this study, different packaging configurations were tested to investigate the following variables: container material, presence of adjuncts, and total volume of space. Container materials consisted of either glass or multi-laminate foil pouches. Glass is impermeable to vapors. Once the total volume of the glass container is flooded with nicotine vapors and any surface adsorption occurs, equilibrium is reached and no additional loss of nicotine should be observed. Though foil is also impermeable, the inner surface of the pouch is lined with an ethylene acid copolymer that promotes vapor absorbency. The copolymer should lead to greater nicotine loss within a pouch than a glass vial of the same total volume.
The presence of adjuncts, such as a drug cartridge housing, is a likely scenario for the final commercial product. The composition of the adjunct will affect equilibrium vapor pressure point if it preferentially absorbs vapors. For this study, a polycarbonate adjunct with a surface area of ˜150 cm^2 was introduced to the glass vial and pouch scenarios. Finally, the total packaging volume was examined. The smaller the available space, the sooner the equilibrium pressure can be reached. Open containers represent the worst case scenario, as the infinite space means that the equilibrium pressure can never be achieved. To set up the experiment, screening foils were spray coated with a 1×2 cm footprint of nicotine m-salicylate to a thickness of ˜11 ug nicotine/mm^2 (equivalent to a coated dose of 200 ug nicotine equivalent on an EMD foil). After a few random screening foils were assayed for initial time point coated dose, the remaining foils were placed in one of the following containers: • Capped glass vial (˜40 mL volume) • Heat-sealed standard pouch (˜133 mm×87 mm) • Heat-sealed standard pouch, stored with polycarbonate material (˜150 cm^2 surface area) • Uncapped glass vial (same vial as first bullet) • Binder-clipped (semi-sealed) standard pouch (˜133 mm×87 mm) • Capped glass vial, stored with polycarbonate • Heat-sealed half pouch (˜69 mm×87 mm) • Uncovered Petri dish
The packaged screening foils were stored at either 40° C. (oven) or 25° C. (laboratory cabinet), without relative humidity control. At pre-determined time points, three foils from each condition were washed with 5 mL of 50% v/v acetonitrile in water and analyzed on the HPLC for nicotine and m-salicylate content.

[6] = for mechanical integrity of the film: dropped 5 times
Protocol: Fragility of the spray coating was tested using two foil arrays coated with ˜200 μg of nicotine per foil (˜11 μg nicotine/mm^2, which is about a 21 μm thick film of nicotine m-salicylate). Five foils from each array were assayed for pre-drop coated dose. Each foil array was then placed into a dose cartridge, sealed into a plastic tube, and dropped 3 times onto the floor from a height of about 1 meter. Five additional foils from each array were assayed for the post-drop coated dose.
In a follow-up study, we studied the effect of thickness on the mechanical integrity of the film. In this experiment, three foils from an array were assayed for pre-drop coated dose. Each foil array was then placed into a dose cartridge, sealed into a plastic tube, and dropped 5 times onto the floor from a height of about 1 meter. Three foils from each array were then assayed for the post-drop coated dose.

[7] = 25° C.; cited from earlier work
[8] = film thickness 29 μm, Post-drop (5 drops, about 1 meter)
[9] = film thickness 37 μm, Post-drop (5 drops, about 1 meter)

Nicotine bifumarate
Nicotine Mass Loss ([1]; 40° C.): 12 µg/day | Nicotine Mass Loss ([1]; 50° C.): 66 µg/day | Nicotine Mass Loss ([1]; 60° C.): 305 µg/day

CN1CCCC1c1cccnc1.O=C(O)/C=C/C(=O)O (stereo not drawn) [Nicotine monofumarate]
Nicotine Mass Loss ([1]; 40° C.): 7 µg/day | Nicotine Mass Loss ([1]; 50° C.): 39 µg/day | Nicotine Mass Loss ([1]; 60° C.): 219 µg/day

CN1CCCC1c1cccnc1.O=C(O)C(O)C(O)C(=O)O (stereo not drawn) [Nicotine bitartrate]
Nicotine Mass Loss ([1]; 40° C.): 1 µg/day | Nicotine Mass Loss ([1]; 50° C.): 3 µg/day | Nicotine Mass Loss ([1]; 60° C.): 10 µg/day

CC(C)(C(=O)O)C(=O)O.CC(C)(C(=O)O)C(=O)O.CN1CCCC1c1cccnc1 (stereo not drawn) [Nicotine bidimethylmalonate]
Nicotine Mass Loss ([1]; 40° C.): 4 µg/day | Nicotine Mass Loss ([1]; 50° C.): 14 µg/day | Nicotine Mass Loss ([1]; 60° C.): 53 µg/day

CN1CCC[C@H]1c1cccnc1.O=C(O)c1ccccc1O [Nicotine o-salicylate, nicotine ortho-salicylate]
Nicotine Mass Loss ([1]; 40° C.): 15 µg/day | Nicotine Mass Loss ([1]; 50° C.): 48 µg/day | Nicotine Mass Loss ([1]; 60° C.): 178 µg/day

CN1CCCC1c1cccnc1.O=C(O)c1cccc(O)c1 (stereo not drawn) [Nicotine m-salicylate, nicotine meta-salicylate]
maximum content of phenol in aerosols (estimated from method sensitivity; phenol not observed) [2]: ≤ 0.013% | Saturation point ([3]; 50/50 acetonitrile/water): 64 mg nicotine/mL | Saturation point ([3]; 80/20 methanol/water): 118 mg nicotine/mL | Saturation point ([3]; Acetonitrile): 9 mg nicotine/mL | Saturation point ([3]; Ethanol): 33 mg nicotine/mL | Saturation point ([3]; Methanol): 103 mg nicotine/mL | Saturation point ([3]; Water): 58 mg nicotine/mL | Saturation point ([3]; acetone): <<10 mg nicotine/mL | solubility ([3]; acetone): < 10000 µg/mL | solubility ([3]; pure acetonitrile): ~10000 µg/mL | Nicotine Mass Loss ([1]; 40° C.): 5 µg/day | Nicotine Mass Loss ([1]; 50° C.): 19 µg/day | Nicotine Mass Loss ([1]; 60° C.): 107 µg/day | residual after scanning TGA ([1]; room temperature to 500° C., pan weighed before and after): ~0.2% | nicotine mass loss, times less than nicotine ortho-salicylate ([1]; storage temperatures between 40-60° C.): 2-3 × | MMAD (NGI cups coated with 1% (w/v) benzoic acid): 0.9 um | MMAD (bare NGI cups, 30 LPM, average): 0.7 μm | Particle size (overall conclusion): about 1 μm | time coated film relatively stable (not more than 20% nicotine loss) ([4]; 22° C./60% RH): up to 4 weeks | time coated film relatively stable (not more than 20% nicotine loss) ([4]; 35° C./80% RH): ≤ 5 days | time coated film relatively stable (not more than 20% nicotine loss) ([4]; 60° C./35% RH): up to 4 hours | time coated film stable (nicotine) ([4]; 22° C./60% RH): ≥ 4 weeks | time coated film stable (nicotine) ([4]; 25° C./90% RH): ≥ 13 days | time coated film stable (nicotine) ([4]; 35° C./80% RH): ≥ 7 days | time coated film stable (nicotine) ([4]; 60° C./35% RH): at least 8 hours | M-salicylic acid stability of coated films ([4]; all conditions except the 40 μg/foil dose at 25° C./90% RH): relatively stable | loss of nicotine content ([5]; 25° C., Petri dish, 18 weeks): 13% | m-salicylic acid content ([5]; 25° C., all eight conditions): stable | Nicotine loss ([5]; 25° C., up to 18 weeks, all conditions except Petri dish): ≤ 7 % of initial | m-salicylate content ([5]; 40° C., all other configurations, 16 weeks): 100-110 % of initial | loss of nicotine content ([5]; 40° C., all other stabilized (sealed) conditions): ≤ 10% | loss of nicotine content ([5]; 40° C., sealed standard sized pouches containing polycarbonate material): ~20% | m-salicylate content ([5]; Petri dish, four weeks at 40° C.): ~80 % of initial | mechanical integrity of the film ([6]; 350 μg nicotine (~37 μm thick)): begin to show signs of fragility | M-salicylate coated dose (average ± 1 standard deviation) [6, 8]: 244 ± 3 | Nicotine coated dose (average ± 1 standard deviation) [6, 8]: 277 ± 3 | M-salicylate coated dose (average ± 1 standard deviation) ([6]; film thickness 29 μm, Pre-drop): 247 ± 1 | Nicotine coated dose (average ± 1 standard deviation) ([6]; film thickness 29 μm, Pre-drop): 275 ± 3 | M-salicylate coated dose (average ± 1 standard deviation) [6, 9]: 299 ± 7 | Nicotine coated dose (average ± 1 standard deviation) [6, 9]: 335 ± 6 | M-salicylate coated dose (average ± 1 standard deviation) ([6]; film thickness 37 μm, Pre-drop): 311 ± 0 | Nicotine coated dose (average ± 1 standard deviation) ([6]; film thickness 37 μm, Pre-drop): 347 ± 6 | coated dose post-drop vs pre-drop, average of two arrays ([6]; ~200 μg nicotine per foil, dropped 3 times): ~0.8% | mechanical integrity of the film ([6]; ~29 μm thickness): not lost

CN1CCCC1c1cccnc1 (stereo not drawn) [Nicotine]
vapor pressure [7]: 0.0425 mmHg
